Where “and” joins values, the source holds several entries; their conditions need not be identical. Identical values can stand only once. Inconclusive results and toxic doses are left out.
Tested on: L1210 leukemia ip in BDF1 mice, survival T/C
Test: NCI In Vivo Anticancer Drug Screen. Data for tumor model L1210 Leukemia (intraperitoneal) in B6D2F1 (BDF1) mice
Conditions: endpoint: mean survival time, higher = longer survival
Procedure, shortened: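 Tumor was transplanted into mice, which were then dosed with test compound or vehicle alone. Survival was recorded for each group, and the treated figure was expressed relative to the control figure.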

[1] = dose: 100.0 mg/kg/injection, schedule: Q04DX002 (ip), vehicle: gum acacia
[2] = dose: 200.0 mg/kg/injection, schedule: Q04DX002 (ip), vehicle: gum acacia
[3] = dose: 400.0 mg/kg/injection, schedule: Q04DX002 (ip), vehicle: gum acacia
[4] = dose: 100.0 mg/kg/injection, schedule: Q01DX009 (ip), vehicle: saline with Tween-80
[5] = dose: 200.0 mg/kg/injection, schedule: Q01DX009 (ip), vehicle: saline with Tween-80
[6] = dose: 400.0 mg/kg/injection, schedule: Q01DX009 (ip), vehicle: saline with Tween-80
[7] = dose: 100.0 mg/kg/injection, schedule: Q01DX001 (ip), vehicle: carboxymethylcellulose (CMC)
[8] = dose: 200.0 mg/kg/injection, schedule: Q01DX001 (ip), vehicle: carboxymethylcellulose (CMC)
[9] = dose: 400.0 mg/kg/injection, schedule: Q01DX001 (ip), vehicle: carboxymethylcellulose (CMC)
[10] = dose: 100.0 mg/kg/injection, schedule: Q01DX001 (ip), vehicle: saline with Tween-80
[11] = dose: 100.0 mg/kg/injection, schedule: Q04DX003 (ip), vehicle: saline with Tween-80
[12] = dose: 200.0 mg/kg/injection, schedule: Q01DX001 (ip), vehicle: saline with Tween-80
[13] = dose: 200.0 mg/kg/injection, schedule: Q04DX003 (ip), vehicle: saline with Tween-80
[14] = dose: 400.0 mg/kg/injection, schedule: Q01DX001 (ip), vehicle: saline with Tween-80
[15] = dose: 400.0 mg/kg/injection, schedule: Q04DX003 (ip), vehicle: saline with Tween-80
[16] = dose: 200.0 mg/kg/injection, schedule: Q01DX009 (ip), vehicle: other
[17] = dose: 100.0 mg/kg/injection, schedule: Q04DX003 (ip), vehicle: Klucel (hydroxypropylcellulose) (HPC)
[18] = dose: 200.0 mg/kg/injection, schedule: Q04DX003 (ip), vehicle: Klucel (hydroxypropylcellulose) (HPC)
[19] = dose: 400.0 mg/kg/injection, schedule: Q04DX003 (ip), vehicle: Klucel (hydroxypropylcellulose) (HPC)
[20] = dose: 100.0 mg/kg/injection, schedule: Q04DX002 (ip), vehicle: saline with Tween-80
[21] = dose: 200.0 mg/kg/injection, schedule: Q04DX002 (ip), vehicle: saline with Tween-80
[22] = dose: 400.0 mg/kg/injection, schedule: Q04DX002 (ip), vehicle: saline with Tween-80

For CC(C)(C)c1cc(/C=N/NC(=O)CNC(=O)Nc2cccc(C(F)(F)F)c2)cc(C(C)(C)C)c1O, the T/C (dose: 100.0 mg/kg/injection, schedule: Q01DX001 (ip), vehicle: gum acacia) was 92 % of control and 94 % of control, the T/C [1] was 98 % of control and 90 % of control and the T/C (dose: 100.0 mg/kg/injection, schedule: Q04DX003 (ip), vehicle: gum acacia) was 99 % of control and 87 % of control. The T/C (dose: 200.0 mg/kg/injection, schedule: Q01DX001 (ip), vehicle: gum acacia) was 94 % of control and 90 % of control, the T/C [2] was 93 % of control and the T/C (dose: 200.0 mg/kg/injection, schedule: Q04DX003 (ip), vehicle: gum acacia) was 92 % of control and 96 % of control. For the same compound, the T/C (dose: 400.0 mg/kg/injection, schedule: Q01DX001 (ip), vehicle: gum acacia) was 94 % of control and 102 % of control, the T/C [3] was 93 % of control and 87 % of control and the T/C (dose: 400.0 mg/kg/injection, schedule: Q04DX003 (ip), vehicle: gum acacia) was 92 % of control and 89 % of control.

For c1coc(NC2CCCCC2)n1, the T/C [4] was 100 % of control, the T/C [5] was 92 % of control and the T/C [6] was 86 % of control.

CC1(CCC#N)CCC(N)=CC1=O (stereo unspecified) was tested, and the T/C [7] was 96 % of control, the T/C [8] was 98 % of control and the T/C [9] was 96 % of control.

For C1=NC(c2ccccc2)=CN(C2CCCCCC2)C1(c1ccccc1)C1CCCCCC1 (stereo unspecified), the T/C (dose: 50.0 mg/kg/injection, schedule: Q04DX002 (ip), vehicle: saline) was 99 % of control, the T/C (dose: 100.0 mg/kg/injection, schedule: Q04DX002 (ip), vehicle: Klucel (hydroxypropylcellulose) (HPC)) was 98 % of control and the T/C (dose: 100.0 mg/kg/injection, schedule: Q04DX002 (ip), vehicle: saline) was 101 % of control. For the same compound, the T/C (dose: 200.0 mg/kg/injection, schedule: Q04DX002 (ip), vehicle: Klucel (hydroxypropylcellulose) (HPC)) was 88 % of control, the T/C (dose: 200.0 mg/kg/injection, schedule: Q04DX002 (ip), vehicle: saline) was 96 % of control and the T/C (dose: 400.0 mg/kg/injection, schedule: Q04DX002 (ip), vehicle: Klucel (hydroxypropylcellulose) (HPC)) was 95 % of control.

O=C(c1ccccc1)C1OC1c1ccc([N+](=O)[O-])cc1 (stereo unspecified) was tested, and the T/C [10] was 91 % of control, the T/C [11] was 100 % of control and the T/C [12] was 88 % of control. The T/C [13] was 103 % of control, the T/C [14] was 88 % of control and the T/C [15] was 100 % of control.

With Nc1nc2c(ncn2-c2cccc(Cl)c2)c(=O)[nH]1 the T/C [11] was 95 % of control and the T/C [13] was 91 % of control.

In the case of CC(CNC(=O)CCOS(C)(=O)=O)CNC(=O)CCOS(C)(=O)=O, the T/C [7] is reported as 115 % of control, the T/C (dose: 100.0 mg/kg/injection, schedule: Q04DX003 (ip), vehicle: other) is reported as 105 % of control and the T/C (dose: 132.0 mg/kg/injection, schedule: Q01DX009 (ip), vehicle: other) is reported as 113 % of control. For the same compound, the T/C [8] was 107 % of control, the T/C [16] was 122 % of control and the T/C (dose: 200.0 mg/kg/injection, schedule: Q04DX003 (ip), vehicle: other) was 121 % of control. The T/C (dose: 264.0 mg/kg/injection, schedule: Q04DX003 (ip), vehicle: saline) was 114 % of control and the T/C [9] was 120 % of control.

CN(C)c1ccc(SCC(=O)c2ccccc2)cc1 was tested, and the T/C [11] was 93 % of control, the T/C [13] was 101 % of control and the T/C [15] was 95 % of control.

With CCCCCCCCCCCCCCCSc1ccc2ccccc2c1 the T/C [17] was 92 % of control, the T/C [18] was 91 % of control and the T/C [19] was 92 % of control.

In the case of O=C(Nc1ccccc1[N+](=O)[O-])OCCOc1ccccc1, the T/C [10] is reported as 98 % of control, the T/C [4] is reported as 103 % of control and 90 % of control and the T/C [20] is reported as 93 % of control and 95 % of control. For the same compound, the T/C [11] was 97 % of control, the T/C [12] was 91 % of control and the T/C [5] was 100 % of control and 92 % of control. For the same compound, the T/C [21] was 98 % of control and 100 % of control, the T/C [13] was 103 % of control and the T/C [14] was 93 % of control. The T/C [6] was 93 % of control and 90 % of control, the T/C [22] was 104 % of control and 92 % of control and the T/C [15] was 105 % of control.

For c1ccc(C(c2ccccc2)n2cc[n+](C(c3ccccc3)c3ccccc3)c2)cc1, the T/C (dose: 12.5 mg/kg/injection, schedule: Q04DX002 (ip), vehicle: gum acacia) was 96 % of control and the T/C (dose: 25.0 mg/kg/injection, schedule: Q04DX002 (ip), vehicle: gum acacia) was 114 % of control.

In the case of CCOC(=O)[CH2][Sn]([Br])([Br])[CH2]C(=O)OCC, the T/C [20] is reported as 94 % of control and the T/C [21] is reported as 89 % of control.

For O=C(O)c1ccsc1Cc1ccsc1, the T/C (dose: 50.0 mg/kg/injection, schedule: Q01DX009 (ip), vehicle: saline with Tween-80) was 89 % of control, the T/C [4] was 96 % of control and the T/C [5] was 86 % of control.

With O=C1/C(=C/c2ccncc2)CCc2cc(Cl)ccc21 the T/C (dose: 100.0 mg/kg/injection, schedule: Q04DX003 (ip), vehicle: carboxymethylcellulose (CMC)) was 107 % of control, the T/C (dose: 200.0 mg/kg/injection, schedule: Q04DX003 (ip), vehicle: carboxymethylcellulose (CMC)) was 111 % of control and the T/C (dose: 400.0 mg/kg/injection, schedule: Q04DX003 (ip), vehicle: carboxymethylcellulose (CMC)) was 96 % of control.

For N=N/C(=C\c1c(O)[nH]c2ccccc12)c1ccccc1, the T/C [1] was 92 % of control, the T/C [2] was 89 % of control and the T/C [3] was 100 % of control.

With COc1cc([N+](=O)[O-])ccc1NC(=O)Nc1cc(C)ccn1 the T/C (dose: 100.0 mg/kg/injection, schedule: Q01DX009 (ip), vehicle: Klucel (hydroxypropylcellulose) (HPC)) was 100 % of control and the T/C (dose: 200.0 mg/kg/injection, schedule: Q01DX009 (ip), vehicle: Klucel (hydroxypropylcellulose) (HPC)) was 93 % of control.

[O-][n+]1ccc(Cl)cc1 was tested, and the T/C (dose: 100.0 mg/kg/injection, schedule: Q01DX009 (ip), vehicle: saline) was 100 % of control, the T/C (dose: 200.0 mg/kg/injection, schedule: Q01DX009 (ip), vehicle: saline) was 96 % of control and the T/C (dose: 400.0 mg/kg/injection, schedule: Q01DX009 (ip), vehicle: saline) was 94 % of control.

With COC1CCC(/C(C#N)=C/C2CCC(NC(C)=O)CC2)CC1 (stereo unspecified) the T/C [20] was 101 % of control, the T/C [21] was 105 % of control and the T/C [22] was 94 % of control.

COc1cccc(N2C(=O)C=CC2=O)c1 was tested, and the T/C (dose: 1.56 mg/kg/injection, schedule: Q01DX009 (ip), vehicle: Klucel (hydroxypropylcellulose) (HPC)) was 97 % of control and the T/C (dose: 3.12 mg/kg/injection, schedule: Q01DX009 (ip), vehicle: Klucel (hydroxypropylcellulose) (HPC)) was 97 % of control.

In the case of CCCCCCCCCCC(=O)CCCCCC, the T/C (dose: 100.0 mg/kg/injection, schedule: Q01DX009 (ip), vehicle: other) is reported as 98 % of control, the T/C [16] is reported as 100 % of control and the T/C (dose: 400.0 mg/kg/injection, schedule: Q01DX009 (ip), vehicle: other) is reported as 107 % of control.

For COC1OC(CO)C(O)C1n1cnc2c(N)ncnc21 (stereo unspecified), the T/C (dose: 25.0 mg/kg/injection, schedule: Q01DX001 (ip), vehicle: saline) was 90 % of control, the T/C (dose: 50.0 mg/kg/injection, schedule: Q01DX001 (ip), vehicle: saline) was 106 % of control and the T/C (dose: 100.0 mg/kg/injection, schedule: Q01DX001 (ip), vehicle: saline) was 103 % of control.

With O=C(NCC(O)CCl)c1ccc([N+](=O)[O-])cc1 (stereo unspecified) the T/C (dose: 100.0 mg/kg/injection, schedule: Q01DX001 (ip), vehicle: Klucel (hydroxypropylcellulose) (HPC)) was 95 % of control, the T/C [17] was 97 % of control and the T/C (dose: 200.0 mg/kg/injection, schedule: Q01DX001 (ip), vehicle: Klucel (hydroxypropylcellulose) (HPC)) was 103 % of control. For the same compound, the T/C [18] was 105 % of control, the T/C (dose: 400.0 mg/kg/injection, schedule: Q01DX001 (ip), vehicle: Klucel (hydroxypropylcellulose) (HPC)) was 95 % of control and the T/C [19] was 92 % of control.

CC(=O)OC1CCCCC1NC(=O)N(CCCl)N=O (stereo unspecified) was tested, and the T/C (dose: 27.0 mg/kg/injection, schedule: Q01DX001 (ip), vehicle: carboxymethylcellulose (CMC)) was 333 % of control, the T/C (dose: 40.0 mg/kg/injection, schedule: Q01DX001 (ip), vehicle: carboxymethylcellulose (CMC)) was 423 % of control and the T/C (dose: 60.0 mg/kg/injection, schedule: Q01DX001 (ip), vehicle: carboxymethylcellulose (CMC)) was 422 % of control. For the same compound, the T/C (dose: 90.0 mg/kg/injection, schedule: Q01DX001 (ip), vehicle: carboxymethylcellulose (CMC)) was 170 % of control.

With O=C(O)c1c(F)c(F)c(-c2c(F)c(F)c(F)c(F)c2F)c(F)c1F the T/C [10] was 86 % of control and the T/C [12] was 91 % of control.
